For 13 compounds, Ki, IC50 and Stability results are on record in ChEMBL document CHEMBL1139251, “Urea based CCR3 antagonists employing a tetrahydro-1,3-oxazin-2-one spacer” (Bioorg Med Chem Lett, 2009).

Some results are limits rather than exact numbers.

One data set concerns the target Cytochrome P450 2D6 (Homo sapiens, UniProt P10635). As to the kind of experiment: Inhibition of CYP2D6. Type of data set: ADME.
The next data set concerns Eosinophil. As to the kind of experiment: Induction of shape change in human eosinophils by flow cytometry. Type of data set: functional, cell-based.
The target in data set [1] is T1, C-C chemokine receptor type 3 (Homo sapiens, UniProt P51677).
T1 sequence (P51677 whole entry): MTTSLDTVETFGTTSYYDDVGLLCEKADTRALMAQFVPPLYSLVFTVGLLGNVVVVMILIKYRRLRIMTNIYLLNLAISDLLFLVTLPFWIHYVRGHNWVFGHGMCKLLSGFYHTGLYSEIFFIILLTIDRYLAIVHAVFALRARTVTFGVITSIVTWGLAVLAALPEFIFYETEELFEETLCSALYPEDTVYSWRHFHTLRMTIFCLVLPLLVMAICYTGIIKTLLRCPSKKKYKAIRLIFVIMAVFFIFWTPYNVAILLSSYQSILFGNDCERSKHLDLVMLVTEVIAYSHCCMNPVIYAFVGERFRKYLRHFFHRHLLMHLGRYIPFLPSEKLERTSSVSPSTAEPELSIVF
Description: Binding affinity to CCR3 receptor.

The subject of another data set is Liver microsomes. As to the kind of experiment: Metabolic stability in human liver microsomes. Type of data set: ADME, Microsome.
Data set [2] addresses Voltage-gated inwardly rectifying potassium channel KCNH2 (Homo sapiens, UniProt Q12809). As to the kind of experiment: Inhibition of human ERG by calcium-flux based assay.

Chain of Cytochrome P450 2D6 (P10635 whole entry): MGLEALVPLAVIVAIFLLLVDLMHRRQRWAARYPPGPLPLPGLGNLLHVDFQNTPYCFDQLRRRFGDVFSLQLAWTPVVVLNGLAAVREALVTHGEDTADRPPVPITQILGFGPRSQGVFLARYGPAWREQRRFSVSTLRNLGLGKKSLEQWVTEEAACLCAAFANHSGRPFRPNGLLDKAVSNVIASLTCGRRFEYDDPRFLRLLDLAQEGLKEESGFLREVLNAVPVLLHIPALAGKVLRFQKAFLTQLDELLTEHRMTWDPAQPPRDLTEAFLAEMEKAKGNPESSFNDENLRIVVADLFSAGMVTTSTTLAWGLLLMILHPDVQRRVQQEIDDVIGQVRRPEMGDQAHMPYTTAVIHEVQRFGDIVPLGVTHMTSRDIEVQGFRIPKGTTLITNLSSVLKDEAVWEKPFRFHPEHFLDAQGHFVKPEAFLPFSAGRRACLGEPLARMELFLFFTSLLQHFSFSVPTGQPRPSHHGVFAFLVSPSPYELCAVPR
Chain of Voltage-gated inwardly rectifying potassium channel KCNH2 (Q12809 whole entry): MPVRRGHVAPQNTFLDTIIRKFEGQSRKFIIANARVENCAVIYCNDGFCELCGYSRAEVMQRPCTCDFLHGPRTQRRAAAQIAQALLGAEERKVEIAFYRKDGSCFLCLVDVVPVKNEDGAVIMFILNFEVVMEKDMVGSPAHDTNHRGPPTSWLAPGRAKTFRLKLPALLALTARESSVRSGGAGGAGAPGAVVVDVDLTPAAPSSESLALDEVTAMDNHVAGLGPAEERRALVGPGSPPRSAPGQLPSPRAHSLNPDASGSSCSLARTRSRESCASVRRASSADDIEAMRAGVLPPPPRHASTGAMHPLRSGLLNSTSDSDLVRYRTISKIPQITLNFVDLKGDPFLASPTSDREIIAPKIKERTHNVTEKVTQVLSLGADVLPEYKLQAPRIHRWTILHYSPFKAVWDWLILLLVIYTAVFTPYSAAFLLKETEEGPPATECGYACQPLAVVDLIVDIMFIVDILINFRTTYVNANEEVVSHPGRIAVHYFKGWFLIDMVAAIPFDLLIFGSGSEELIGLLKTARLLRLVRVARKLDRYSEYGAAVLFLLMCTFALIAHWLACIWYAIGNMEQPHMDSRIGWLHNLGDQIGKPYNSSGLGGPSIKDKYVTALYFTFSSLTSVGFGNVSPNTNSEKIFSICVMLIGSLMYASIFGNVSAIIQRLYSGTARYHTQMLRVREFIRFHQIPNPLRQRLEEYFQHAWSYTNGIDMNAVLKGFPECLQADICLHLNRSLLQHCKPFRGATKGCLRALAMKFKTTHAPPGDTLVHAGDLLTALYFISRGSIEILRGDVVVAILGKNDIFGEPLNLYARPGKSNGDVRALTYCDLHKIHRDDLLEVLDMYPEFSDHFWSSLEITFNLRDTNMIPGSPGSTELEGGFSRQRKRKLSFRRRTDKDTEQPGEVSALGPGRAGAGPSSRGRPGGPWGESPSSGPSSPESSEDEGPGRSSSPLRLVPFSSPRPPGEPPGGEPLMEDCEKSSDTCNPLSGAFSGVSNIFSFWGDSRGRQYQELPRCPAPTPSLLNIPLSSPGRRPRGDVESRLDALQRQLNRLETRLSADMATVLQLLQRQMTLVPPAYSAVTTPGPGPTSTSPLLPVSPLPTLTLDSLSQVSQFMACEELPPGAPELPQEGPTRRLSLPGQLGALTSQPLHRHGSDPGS

For orientation: Ki means a measure of affinity in units of concentration, obtained from inhibition or displacement. As a reminder, the IC50 is the concentration at which inhibition is half-maximal. The compound `C[C@@H](NC(=O)Nc1cccc(-c2nnnn2C)c1)[C@@H](O)CN1CCC[C@@H](Cc2ccc(F)cc2)C1` registered a Ki on Cytochrome P450 2D6 of 2600 nM. This compound came in with an IC50 in the data set with Eosinophil (Homo sapiens, Eosinophil) of 0.038 nM.

Take `CN1C[C@@H](NC(=O)Nc2cccc(-c3nnnn3C)c2)[C@H](CN2CCC[C@@H](Cc3ccc(F)cc3)C2)OC1=O`: the concentration for half-maximal inhibition (IC50) against Cytochrome P450 2D6 is 4300 nM; in data set [1], 0.23 nM.

Turning to `CN1C[C@@H](NC(=O)Nc2cccc(-c3nnnn3C)c2)[C@H](CN(CCCc2ccc(F)cc2)C2CC2)OC1=O`, the IC50 turned out to be 2.1 nM in data set [1] and 2.2 nM with Eosinophil (Homo sapiens, Eosinophil).

For the compound `CCCN(CCCc1ccc(F)cc1)C[C@@H]1OC(=O)N(C)C[C@H]1NC(=O)Nc1nc(C)cs1`, the IC50 in data set [1] was determined as 9.2 nM.

For the compound `CC(=O)c1sc(NC(=O)NC2(C)CN(C)C(=O)OC2CN2CCC[C@@H](Cc3ccc(F)cc3)C2)nc1C` (mixture of isomers), the IC50 came to 21000 nM against Cytochrome P450 2D6 and 1.1 nM in data set [1].

Consider `CN1CC(C)(NC(=O)Nc2cccc(-c3nnnn3C)c2)C(CN2CCC[C@@H](Cc3ccc(F)cc3)C2)OC1=O` (mixture of isomers; 19a), for which the IC50 on Cytochrome P450 2D6 worked out at 33000 nM; in data set [1] it was 0.12 nM; in the data set with Eosinophil (eosinophil), 2.4 nM.

`CN1CC(C)(NC(=O)Nc2cccc(-c3nnnn3C)c2)C(CN2CCC[C@@H](Cc3ccc(F)cc3)C2)OC1=O.Cl` (mixture of isomers; 19b): the IC50 turned out to be 17000 nM at Cytochrome P450 2D6, 15700 nM in data set [2], 0.15 nM in data set [1] and 0.13 nM with Eosinophil (eosinophil). The Stability result in the data set with Liver microsomes is “Unstable”.

For the compound `Cc1csc(NC(=O)NC2(C)CN(C)C(=O)OC2CN2CCC[C@@H](Cc3ccc(F)cc3)C2)n1` (mixture of isomers; 20a), the IC50 in data set [1] came to 5.4 nM.

Take `Cc1csc(NC(=O)NC2(C)CN(C)C(=O)OC2CN2CCC[C@@H](Cc3ccc(F)cc3)C2)n1` (mixture of isomers; 20b): the IC50 turned out to be 2100 nM against Cytochrome P450 2D6; 0.37 nM in data set [1]; 3.4 nM in the data set on Eosinophil (Homo sapiens, Eosinophil).

In data set [1], `CN1CC(C)(NC(=O)Nc2nc(C(C)(C)C)cs2)C(CN2CCC[C@@H](Cc3ccc(F)cc3)C2)OC1=O` (mixture of isomers; 22a) registered a half-maximal inhibitory concentration (IC50) of 44 nM.

With `CN1CC(C)(NC(=O)Nc2nc(C(C)(C)C)cs2)C(CN2CCC[C@@H](Cc3ccc(F)cc3)C2)OC1=O` (mixture of isomers; 22b), the IC50 against Cytochrome P450 2D6 was found to be 40000 nM; in data set [1], 5.5 nM.

On to `CCN(CCCc1ccc(F)cc1)CC1OC(=O)N(C)CC1(C)NC(=O)Nc1cccc(-c2nnnn2C)c1` (mixture of isomers; 23a), for which the IC50 came out at 5900 nM on Cytochrome P450 2D6, 0.18 nM in data set [1] and 4.4 nM with Eosinophil (eosinophil).

Turning to `CCN(CCCc1ccc(F)cc1)CC1OC(=O)N(C)CC1(C)NC(=O)Nc1cccc(-c2nnnn2C)c1` (mixture of isomers; 23b), the IC50 on Cytochrome P450 2D6 was 14000 nM; in data set [1], 0.47 nM; with Eosinophil (Homo sapiens, Eosinophil), greater than 3 nM.
